“Also recorded” adds a separate entry of the source. Where a name gives a salt, the structure may show the parent alone.
Key:
mouse mu‐opioid receptor [1] = target: T1, mouse mu‐opioid receptor (Mus musculus, UniProt P42866); assay: Radioligand competition binding, mMOR‐CHO membranes; conditions: for Ki: MOR K i, [3H]naloxone, mMOR‐CHO membranes, mean ± SEM (n = 3–6)
[2] = target: T2, mouse kappa opioid receptor (Mus musculus, UniProt P33534); assay: Radioligand competition binding, mKOR‐CHO membranes; conditions: for MOR/KOR (fold selectivity for MOR over KOR): K i at KOR divided by K i at MOR
[3] = target: T3, human delta‐opioid receptor (Homo sapiens, UniProt P41143); assay: Radioligand competition binding, hDOR‐CHO membranes; conditions: for MOR/DOR (fold selectivity for MOR over DOR): K i at DOR divided by K i at MOR
mouse mu‐opioid receptor [4] = target: T1, mouse mu‐opioid receptor; assay: Ligand‐stimulated [35S]GTPγS binding, mMOR‐CHO membranes; assay type: biochemical; conditions: for Emax: read-out: MOR E max
[5] = target: T2, mouse kappa opioid receptor; assay: biochemical; assay type: biochemical; conditions: for Emax: read-out: KOR E max
[6] = target: T3, human delta‐opioid receptor; assay: Ligand‐stimulated [35S]GTPγS binding, hDOR‐CHO membranes; assay type: biochemical; conditions: for Emax: read-out: DOR E max
male and female ICR mice [7] = assay: Horizontal locomotor activity, 60‐min session; assay type: in vivo, mouse; conditions: for Emax / ED50: Mus musculus, sc; for Emax: 1 h, read-out: E max (95%CL), % Methadone E max; for ED50: read-out: ED50 (95% CL); for Effect on locomotor activity: SC, drug alone
male and female ICR mice [8] = assay: Test‐drug antagonism of morphine locomotor activation; assay type: in vivo, mouse; conditions: test drug SC 10 min before 32 mg/kg SC morphine
male and female ICR mice [9] = assay: Naltrexone antagonism of test‐drug locomotor activation; assay type: in vivo, mouse; conditions: 1.0 mg/kg naltrexone SC 10 min before test drug

SMILES | Ki (mouse mu‐opioid receptor [1]) [nM] | Ki [2] [nM] | MOR/KOR (fold selectivity for MOR over KOR) [2] [fold] | Ki [3] [nM] | MOR/DOR (fold selectivity for MOR over DOR) [3] [fold] | EC50 (mouse mu‐opioid receptor [4]) [nM] | Emax (mouse mu‐opioid receptor [4]) [%] | EC50 [6] [nM] | Emax [6] [%] | Emax (male and female ICR mice [7]) [%] | ED50 (male and female ICR mice [7]) [mg/kg] | KOR E max [5] | Effect of naltrexone pretreatment on locomotor‐activating dose of test drug (male and female ICR mice [9]) | further results
CCC[C@H]1[C@@H]2CCC[C@@]1(c1cccc(O)c1)CCN2CCc1ccccc1 [EG‐1‐203, 3‐((1S,5R,9R)‐2‐phenethyl‐9‐propyl‐2‐azabicyclo[3.3.1]nonan‐5‐yl)phenol] | 0.761 ± 0.031 | 22.3 ± 4.66 | 29.3 | 66.5 ± 7.7 | 87.4 | 24.2 ± 13.8 | 4.79 ± 0.6 | 37 ± 17.7 | -11.6 ± 3.08 | 13 | 5.42 |  |  | EC50 [5]: 125 ± 88.7 nM; Emax [5]: -3.49 ± 0.67%; Effect of test‐drug pretreatment on locomotor‐activating effects of morphine (male and female ICR mice [8]): significantly attenuated
C=C[C@H]1[C@H]2CCC[C@]1(c1cccc(O)c1)CCN2CCc1ccccc1 [DC‐1‐76.2, 3‐((1R,5S,9R)‐2‐phenethyl‐9‐vinyl‐2‐azabicyclo[3.3.1]nonan‐5‐yl)phenol] |  | 44 ± 2.98 | 88.5 | 347 ± 45.6 | 698.5 |  |  | 160 ± 142 | -6.34 ± 0.78 | 87.6 | 0.47 | No stim | significantly attenuated | 
C/C=C\[C@H]1[C@H]2CCC[C@]1(c1cccc(O)c1)CCN2CCc1ccccc1 [DC‐1‐90.2, 3‐((1R,5S,9R)‐2‐phenethyl‐9‐((Z)‐prop‐1‐en‐1‐yl)‐2‐azabicyclo[3.3.1]nonan‐5‐yl)phenol] |  | 34.5 ± 0.77 | 18.8 | 430 ± 41.7 | 235.0 |  |  | 253 ± 133 | -6.97 ± 0.46 |  |  | No stim |  | 
C/C=C\[C@@H]1[C@H]2CCC[C@]1(c1cccc(O)c1)CCN2CCc1ccccc1 [DC‐1‐128.1, 3‐((1R,5S,9S)‐2‐phenethyl‐9‐((Z)‐prop‐1‐en‐1‐yl)‐2‐azabicyclo [3.3.1]nonan‐5‐yl)phenol] |  | 63.3 ± 7.43 | 112.6 | 318 ± 47 | 565.2 |  |  | 503 ± 118 | 31.4 ± 2.23 | 80.1 | 0.19 | no KOR activation; also recorded: No stim | significantly attenuated | Fold difference in [35S]GTPγS potency, MOR versus DOR ([6]; higher potency at MOR than at DOR): more than 60 fold
CCC(=O)C(CC(C)N(C)C)(c1ccccc1)c1ccccc1 (racemic) [Methadone, (±) Methadone HCl, reference compound] |  |  |  |  |  |  |  |  |  |  |  |  |  | Total locomotor counts (male and female ICR mice [7]; 32 mg/kg SC, 60‐min session): 7500.1 counts; Mean maximum increase in locomotor counts (male and female ICR mice [7]; 32 mg/kg vs. saline vehicle): 5149.8 counts; Effect on locomotor activity (male and female ICR mice [7]): dose‐dependent increase in locomotor activity
OC/C=C/[C@H]1[C@@H]2CCC[C@@]1(c1cccc(O)c1)CCN2CCc1ccccc1 [EG‐1‐230, 3‐((1S,5R,9R)‐9‐((E)‐3‐hydroxyprop‐1‐en‐1‐yl)‐2‐phenethyl‐2‐azabicyclo[3.3.1]nonan‐5‐yl)phenol] | 4.22 ± 0.177 | 45.9 ± 7.08 | 10.9 | 1010 ± 147 | 238.5 | 24.1 ± 12 | 0.67 ± 0.79 | 517 ± 366 | -10.6 ± 3.58 | 2.2 |  |  |  | EC50 [5]: 20.7 ± 5.6 nM; Emax [5]: -3.97 ± 0.65%; Effect on locomotor activity (male and female ICR mice [7]): inactive when administered alone; Effect of test‐drug pretreatment on locomotor‐activating effects of morphine (male and female ICR mice [8]): significantly attenuated
CN1c2ccccc2C(NCCCCCCC(=O)O)c2ccc(Cl)cc2S1(=O)=O (centres unmarked) [Tianeptine, reference compound] | 78.2 ± 9.93 |  |  | 2830 ± 416 |  | 6440 ± 622 | 110 ± 3.6 |  |  |  |  | No stim | significantly attenuated | 
OCC[C@H]1[C@@H]2CCC[C@@]1(c1cccc(O)c1)CCN2CCc1ccccc1 [JL‐2‐39, 3‐((1S,5R,9R)‐9‐(2‐hydroxyethyl)‐2‐phenethyl‐2‐azabicyclo[3.3.1]nonan‐5‐yl)phenol] | 0.394 ± 0.035 | 17.1 ± 2.22 | 43.4 | 473 ± 41.2 | 1199.2 | 7.09 ± 3.7 | 13 ± 1.48 |  |  | 87.1 | 2.85 | No stim | significantly attenuated | Fold higher MOR affinity than DC‐1‐76.1 (mouse mu‐opioid receptor [1]; relative to DC‐1‐76.1): ~ 5 fold; Fold more potent than DC‐1‐76.1 in vitro ([35S]GTPɣS binding, MOR CHO cells) (mouse mu‐opioid receptor [4]; relative to DC‐1‐76.1): ~ 5 fold; Fold less potent than DC‐1‐76.1 in vivo (locomotor activity) (male and female ICR mice [7]; relative to DC‐1‐76.1): ~ 4 fold
C=C[C@@H]1[C@H]2CCC[C@]1(c1cccc(O)c1)CCN2CCc1ccccc1 [DC‐1‐76.1, 3‐((1R,5S,9S)‐2‐phenethyl‐9‐vinyl‐2‐azabicyclo[3.3.1]nonan‐5‐yl)phenol] |  | 52.9 ± 1.11 | 27.7 | 3390 ± 268 | 1773.3 |  |  | 1160 ± 214 | -0.7 ± 2.12 | 34.3 | 0.72 | No stim | significantly attenuated | 

— publication PMC10307939 (Pharmacology Research & Perspectives, 2023)
